# According to ChEMBL document CHEMBL3046272, “Tolerance of two Bifora radians Bieb populations to ALS inhibitors in winter wheat” (2012):
# Active and inactive are the calls of the source. The rule behind the calls is not given here.
# Experiments:
# Bifora radians [1] = assay: Herbicidal activity against ALS-inhibiting herbicide-resistant four to six-leaf stage Bifora radians infested wheat field at ED50 applied by spraying relative to ALS-inhibiting herbicide-sensitive Bifora radians; format: functional
# Bifora radians [2] = assay: Herbicidal activity against ALS-inhibiting herbicide-resistant two to four-leaf stage Bifora radians infested wheat field at ED50 applied by spraying relative to ALS-inhibiting herbicide-sensitive Bifora radians; format: functional
# Bifora radians [3] = assay: Herbicidal activity against ALS-inhibiting herbicide-resistant six to eight-leaf stage Bifora radians infested wheat field at ED90 applied by spraying relative to ALS-inhibiting herbicide-sensitive Bifora radians; format: functional
# Bifora radians [4] = assay: Herbicidal activity against ALS-inhibiting herbicide-resistant two to four-leaf stage Bifora radians infested wheat field at 15 to 20 g/ha applied by spraying measured after 14 to 56 days post treatment; format: functional, organism-based
# Bifora radians [5] = assay: Herbicidal activity against ALS-inhibiting herbicide-resistant six to eight-leaf stage Bifora radians infested wheat field at ED50 applied by spraying relative to ALS-inhibiting herbicide-sensitive Bifora radians; format: functional
# Bifora radians [6] = assay: Herbicidal activity against ALS-inhibiting herbicide-resistant two to four-leaf stage Bifora radians infested wheat field at ED90 applied by spraying relative to ALS-inhibiting herbicide-sensitive Bifora radians; format: functional
# Bifora radians [7] = assay: Herbicidal activity against ALS-inhibiting herbicide-resistant six to eight-leaf stage Bifora radians infested wheat field at 15 to 20 g/ha applied by spraying measured after 14 to 56 days post treatment; format: functional, organism-based
# Bifora radians [8] = assay: Herbicidal activity against ALS-inhibiting herbicide-resistant four to six-leaf stage Bifora radians infested wheat field at 15 to 20 g/ha applied by spraying measured after 14 to 56 days post treatment; format: functional, organism-based
# Bifora radians [9] = assay: Herbicidal activity against ALS-inhibiting herbicide-resistant four to six-leaf stage Bifora radians infested wheat field at ED90 applied by spraying relative to ALS-inhibiting herbicide-sensitive Bifora radians; format: functional
compound,measurement,setting,value
COc1nc(C)nc(NC(=O)NS(=O)(=O)c2ccccc2Cl)n1 [CHLORSULFURON],Ratio,Bifora radians [1],1.8
same,Ratio,Bifora radians [2],1.9
same,Ratio,Bifora radians [3],2
same,Activity,Bifora radians [4],Active
same,Ratio,Bifora radians [5],2.3
same,Ratio,Bifora radians [6],1.6
same,Activity,Bifora radians [7],Active
same,Activity,Bifora radians [8],Active
same,Ratio,Bifora radians [9],1.6
COC(=O)c1ccccc1S(=O)(=O)NC(=O)N(C)c1nc(C)nc(OC)n1 [TRIBENURON METHYL],Ratio,Bifora radians [1],1.8
same,Ratio,Bifora radians [2],1.7
same,Ratio,Bifora radians [3],2.4
same,Ratio,Bifora radians [5],2
same,Ratio,Bifora radians [6],1.8
same,Ratio,Bifora radians [9],1.9
